Measured values as given in US20260265246A1 (ICAHN SCHOOL OF MEDICINE AT MOUNT SINAI, priority 2021, published 2026).
pEC50, pKi: −log10 of the molar value. Like-named read-outs stand apart in the source and are kept apart here.

Tests used:
[1] = target: T1, 5HT2A receptor (Homo sapiens, UniProt P28223); assay: biochemical; format: binding; parameters: expressed in transfected cells; crude membranes; details: secondary binding assay, Cheng-Prusoff; for Ki: 5HT2A Ki (nM)
[2] = target: T1, 5HT2A receptor; assay: cell-based; parameters: expressed in transfected cells; host or cells: HEK293T cells, transient co-transfection; details: for EC50: 5HTA Gq EC50 (nM); for Emax: HEK-293T; for pEC50: read-out: 5HTA Gq EC50
[3] = target: T1, 5HT2A receptor; assay: cell-based; parameters: expressed in transfected cells; host or cells: HEK293T cells, transient co-transfection; details: for EC50: 5HT2A β-Arr EC50 (nM); for Emax: HEK-293T; for pEC50: read-out: 5HT2A β-Arr EC50
[4] = BRET2 Gαq dissociation, HEK293T
[5] = read-out: 5HTA Gq Emax (%), BRET2 Gαq dissociation, HEK293T, normalized to 5-HT
[6] = BRET1 beta-arrestin2 recruitment, HEK293T
[7] = read-out: 5HT2A β-Arr Emax (%), BRET1 beta-arrestin2 recruitment, HEK293T, normalized to 5-HT
[8] = BRET2 Gαq dissociation, HEK293T, normalized to 5-HT, read-out: 5HTA Gq Emax (%)
[9] = BRET1 beta-arrestin2 recruitment, HEK293T, normalized to 5-HT, read-out: 5HT2A β-Arr Emax (%)

T1 sequence (P28223 whole entry): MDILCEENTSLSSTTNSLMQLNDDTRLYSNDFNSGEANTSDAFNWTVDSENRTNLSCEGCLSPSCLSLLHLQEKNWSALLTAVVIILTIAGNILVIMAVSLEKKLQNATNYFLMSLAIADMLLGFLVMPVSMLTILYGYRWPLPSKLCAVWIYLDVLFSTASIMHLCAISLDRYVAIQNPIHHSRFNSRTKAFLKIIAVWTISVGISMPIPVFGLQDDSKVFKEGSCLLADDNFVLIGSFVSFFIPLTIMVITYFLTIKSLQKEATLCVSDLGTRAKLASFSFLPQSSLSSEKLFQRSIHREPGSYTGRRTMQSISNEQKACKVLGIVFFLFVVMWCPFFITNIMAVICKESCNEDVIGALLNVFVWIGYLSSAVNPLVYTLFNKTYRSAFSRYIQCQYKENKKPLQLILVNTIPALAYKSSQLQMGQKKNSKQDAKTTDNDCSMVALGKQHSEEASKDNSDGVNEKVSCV

Row | SMILES | Ki [1] | EC50 [2, 4] | Emax [2, 5] | EC50 [3, 6] | Emax [3, 7] | Emax [2, 8] | Emax [3, 9] | pEC50 [2, 4] | pEC50 [3, 6] | pKi ([1]; read-out: 5HT2A Ki)
1 | CC#CCN1CCC=C(c2n[nH]c3c(Cl)cccc23)C1 [Example 149, 3-(1-(but-2-yn-1-yl)-1,2,5,6-tetrahydropyridin-3-yl)-7-chloro-1H-indazole] | 364 nM | 10.1 nM | 49.8% | 113 nM | 24.2% | – | – | – | – | –
2 | [2H]C([2H])([2H])N1CCC=C(c2n[nH]c3c(Cl)cccc23)C1 [Example 150, 7-chloro-3-(1-(methyl-d3)-1,2,5,6-tetrahydropyridin-3-yl)-1H-indazole] | 842 nM | 13.3 nM | 95.3% | 29.9 nM | 60.9% | – | – | – | – | –
3 | FC(F)(F)CN1CCC=C(c2n[nH]c3c(Cl)cccc23)C1 [Example 152, 7-chloro-3-(1-(2,2,2-trifluoroethyl)-1,2,5,6-tetrahydropyridin-3-yl)-1H-indazole] | 389 nM | 1570 nM | 89.8% | 1050 nM | 66.5% | – | – | – | – | –
4 | FC(F)CN1CCC=C(c2n[nH]c3c(Cl)cccc23)C1 [Example 153, 7-chloro-3-(1-(2,2-difluoroethyl)-1,2,5,6-tetrahydropyridin-3-yl)-1H-indazole] | 634 nM | 1240 nM | – | 1200 nM | – | 83.9% | 77.4% | – | – | –
5 | CCCN1CCC=C(c2c[nH]c3c(C)cccc23)C1 [Example 155, 7-methyl-3-(1-propyl-1,2,5,6-tetrahydropyridin-3-yl)-1H-indole] | 539 nM | – | – | 532 nM | – | 68.5% | 34.4% | 7.53 | – | –
6 | CCCN1CCC=C(c2c[nH]c3c(F)cccc23)C1 [Example 156, 7-fluoro-3-(1-propyl-1,2,5,6-tetrahydropyridin-3-yl)-1H-indole] | 164 nM | – | – | – | – | 103% | 58.4% | 7.69 | 7.21 | –
7 | CCCN1CCC=C(c2c[nH]c3c(C#N)cccc23)C1 [Example 157, 3-(1-propyl-1,2,5,6-tetrahydropyridin-3-yl)-1H-indole-7-carbonitrile] | 164 nM | – | – | 500 nM | – | 78% | 39.3% | 7.03 | – | –
8 | CCCN1CCC=C(c2c[nH]c3c(CC)cccc23)C1 [Example 158, 7-ethyl-3-(1-propyl-1,2,5,6-tetrahydropyridin-3-yl)-1H-indole] | 368 nM | – | – | 120 nM | – | 82.2% | 32.6% | 7.11 | – | –
9 | CCCN1CCC=C(c2c[nH]c3c(Cl)cc(F)cc23)C1 [Example 159] | 126 nM | 17.5 nM | 90.3% | 66.9 nM | 39.7% | – | – | – | – | –
10 | CCCN1CCC=C(c2c[nH]c3c(Cl)c(F)ccc23)C1 [Example 160] | 151 nM | 74.5 nM | 84.1% | 144 nM | 30.9% | – | – | – | – | –
11 | CCCN1CCC=C(c2c[nH]c3c(C)cc(F)cc23)C1 [Example 161, 5-fluoro-7-methyl-3-(1-propyl-1,2,5,6-tetrahydropyridin-3-yl)-1H-indole] | 488 nM | – | – | 311 nM | – | 93.2% | 35.2% | 7.08 | – | –
12 | CCCN1CCC=C(c2c[nH]c3c(C)c(F)ccc23)C1 [Example 162, 6-fluoro-7-methyl-3-(1-propyl-1,2,5,6-tetrahydropyridin-3-yl)-1H-indole] | 1140 nM | 260 nM | – | 303 nM | – | 80.6% | 23.4% | – | – | –
13 | FC(F)(F)CCN1CCC=C(c2n[nH]c3c(Cl)cccc23)C1 [Example 164, 7-chloro-3-(1-(3,3,3-trifluoropropyl)-1,2,5,6-tetrahydropyridin-3-yl)-1H-indazole] | > 10000 nM | 518 nM | – | 836 nM | – | 52.9% | 23.3% | – | – | –
14 | FCCCN1CCC=C(c2n[nH]c3c(Cl)cccc23)C1 [Example 165, 7-chloro-3-(1-(3-fluoropropyl)-1,2,5,6-tetrahydropyridin-3-yl)-1H-indazole] | 342 nM | – | – | 157 nM | – | 65% | 28.7% | 7.07 | – | –
15 | Clc1cccc2c(C3=CCCN(C4CC4)C3)n[nH]c12 [Example 166, 7-chloro-3-(1-cyclopropyl-1,2,5,6-tetrahydropyridin-3-yl)-1H-indazole] | 307 nM | 47.1 nM | 64% | 120 nM | 24.9% | – | – | – | – | –
16 | OCCN1CCC=C(c2n[nH]c3c(Cl)cccc23)C1 [Example 168, 2-(5-(7-chloro-1H-indazol-3-yl)-3,6-dihydropyridin-1(2H)-yl)ethan-1-ol] | 8640 nM | 183 nM | – | 1050 nM | – | 68.2% | 41.6% | – | – | –

Row | SMILES | Ki [1] | EC50 [2, 4] | Emax [2, 5] | EC50 [3, 6] | Emax [3, 7] | Emax [2, 8] | Emax [3, 9] | pEC50 [2, 4] | pEC50 [3, 6] | pKi ([1]; read-out: 5HT2A Ki)
17 | CCCN1CCC=C(c2n[nH]c3cccc(C#N)c23)C1 [Example 175, 3-(1-propyl-1,2,5,6-tetrahydropyridin-3-yl)-1H-indazole-4-carbonitrile] | 8250 nM | – | – | 343 nM | – | 46.3% | 31.6% | 7.05 | – | –
18 | N#Cc1cccc2c(C34CNCC3C4)n[nH]c12 (centres unmarked) [Example 184, 3-(3-azabicyclo[3.1.0]hexan-1-yl)-1H-indazole-7-carbonitrile] | 5680 nM | 423 nM | – | 1970 nM | – | 103% | 68.2% | – | – | –
19 | Fc1cc(Cl)c2[nH]nc(C34CNCC3C4)c2c1 (centres unmarked) [Example 185, 3-(3-azabicyclo[3.1.0]hexan-1-yl)-7-chloro-5-fluoro-1H-indazole] | 6740 nM | 290 nM | – | 542 nM | – | 78.1% | 46.1% | – | – | –
20 | Cc1cccc2c(C34CNCC3C4)n[nH]c12 (centres unmarked) [Example 186, 3-(3-azabicyclo[3.1.0]hexan-1-yl)-7-methyl-1H-indazole] | 748 nM | 231 nM | – | 481 nM | – | 98.8% | 46.9% | – | – | –
21 | Fc1cccc2c(C34CNCC3C4)n[nH]c12 (centres unmarked) [Example 187, 3-(3-azabicyclo[3.1.0]hexan-1-yl)-7-fluoro-1H-indazole] | 699 nM | 136 nM | – | 648 nM | – | 71.6% | 35% | – | – | –
22 | N#Cc1cccc2c(C34CNCCC3C4)n[nH]c12 (centres unmarked) [Example 195, 3-(3-azabicyclo[4.1.0]heptan-1-yl)-1H-indazole-7-carbonitrile] | > 10000 nM | 1090 nM | – | 1040 nM | – | 77.4% | 21.7% | – | – | –
23 | FC1(F)C2CNCC21c1n[nH]c2c(Cl)cccc12 (centres unmarked) [Example 199, 7-chloro-3-(6,6-difluoro-3-azabicyclo[3.1.0]hexan-1-yl)-1H-indazole] | 3440 nM | 174 nM | – | 956 nM | – | 87.1% | 76.5% | – | – | –
24 | Clc1cccc2c(C3=CCNC3)n[nH]c12 [Example 206, 7-chloro-3-(2,5-dihydro-1H-pyrrol-3-yl)-1H-indazole] | 272 nM | – | – | – | – | 117% | 108% | 7.84 | 7.35 | –
25 | CN1CC=C(c2n[nH]c3c(Cl)cccc23)C1 [Example 207, 7-chloro-3-(1-methyl-2,5-dihydro-1H-pyrrol-3-yl)-1H-indazole] | 203 nM | – | – | 129 nM | – | 94.7% | 47.8% | 7.29 | – | –
26 | Clc1cccc2c(C3=CCCCNC3)n[nH]c12 [Example 208, 7-chloro-3-(2,5,6,7-tetrahydro-1H-azepin-3-yl)-1H-indazole] | > 10000 nM | 849 nM | 95.7% | 1900 nM | 48.9% | – | – | – | – | –
27 | Clc1cccc2c(C3=CCNC3)c[nH]c12 [Example 209, 7-chloro-3-(2,5-dihydro-1H-pyrrol-3-yl)-1H-indole] | 160 nM | – | – | – | – | 100% | 88.1% | 8.09 | 7.22 | –
28 | CN1CC=C(c2c[nH]c3c(Cl)cccc23)C1 [Example 210, 7-chloro-3-(1-methyl-2,5-dihydro-1H-pyrrol-3-yl)-1H-indole] | – | – | – | 119 nM | – | 74.9% | 33.6% | 7.48 | – | 7.06
29 | CCCN1CC=C(c2n[nH]c3c(Cl)cccc23)C1 [Example 213, 7-chloro-3-(1-propyl-2,5-dihydro-1H-pyrrol-3-yl)-1H-indazole] | 1770 nM | – | – | 211 nM | – | 61.3% | 31.5% | 7.14 | – | –
30 | Clc1cccc2c(-c3cncnc3)n[nH]c12 [Example 216, 7-chloro-3-(pyrimidin-5-yl)-1H-indazole] | 4390 nM | 27.5 nM | – | 729 nM | – | 85.1% | 53.8% | – | – | –
31 | CC(C)N1CC=C(c2n[nH]c3c(Cl)cccc23)C1 [Example 219, 7-chloro-3-(1-isopropyl-2,5-dihydro-1H-pyrrol-3-yl)-1H-indazole] | 313 nM | – | – | 537 nM | – | 55.5% | 71.9% | 7.59 | – | –
